Experimental findings from patent US9694016B2 (Novartis AG, priority 2013, dated 2017) are described below.

The target in one assay is b-Raf (V600E) (Homo sapiens (Human), UniProt P15056, V600E). The note with it: read-out: b-Raf IC-50; AlphaScreen, 60 min pre-incubation, 3 hours reaction.
Chain of b-Raf (V600E) (P15056 whole entry V600E): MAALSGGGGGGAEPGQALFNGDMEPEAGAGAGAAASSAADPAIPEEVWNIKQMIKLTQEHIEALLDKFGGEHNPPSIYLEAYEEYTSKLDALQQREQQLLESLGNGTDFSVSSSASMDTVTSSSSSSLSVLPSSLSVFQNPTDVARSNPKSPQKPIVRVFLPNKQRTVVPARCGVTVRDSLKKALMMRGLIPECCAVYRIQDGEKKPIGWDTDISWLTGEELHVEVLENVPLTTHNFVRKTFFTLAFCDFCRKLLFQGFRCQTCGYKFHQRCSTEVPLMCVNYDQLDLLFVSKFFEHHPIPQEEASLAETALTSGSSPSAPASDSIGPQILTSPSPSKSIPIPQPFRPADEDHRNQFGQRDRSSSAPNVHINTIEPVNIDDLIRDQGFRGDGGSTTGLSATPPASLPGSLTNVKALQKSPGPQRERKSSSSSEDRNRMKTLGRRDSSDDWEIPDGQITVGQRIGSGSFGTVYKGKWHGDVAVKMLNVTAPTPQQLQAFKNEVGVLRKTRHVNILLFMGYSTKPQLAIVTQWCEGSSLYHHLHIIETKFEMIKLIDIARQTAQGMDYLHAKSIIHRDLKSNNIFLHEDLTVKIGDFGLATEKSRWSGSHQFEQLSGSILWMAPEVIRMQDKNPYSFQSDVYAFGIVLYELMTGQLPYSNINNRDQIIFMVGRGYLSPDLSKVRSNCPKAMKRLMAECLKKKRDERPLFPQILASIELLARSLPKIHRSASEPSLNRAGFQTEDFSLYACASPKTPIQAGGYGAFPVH
With `Cc1ncc(NC(=O)c2ccnc(C(C)(C)C#N)c2)cc1-c1cc(N2CCOCC2)nc(N2C(=O)OC[C@@H]2C)n1` [Example 784, (S)-2-(2-cyanopropan-2-yl)-N-(6-methyl-5-(2-(4-methyl-2-oxooxazolidin-3-yl)-6-morpholinopyrimidin-4-yl)pyridin-3-yl)isonicotinamide], the IC50 was 200 nM. The same measure, in the same setting: with `COCCOc1nnc(-c2cc(NC(=O)c3cc(C(F)(F)F)ccn3)ccc2C)cc1N1CCOCC1` [Example 599, N-(3-(6-(2-methoxyethoxy)-5-morpholinopyridazin-3-yl)-4-methylphenyl)-4-(trifluoromethyl)picolinamide] the figure was 0.5 nM; with `Cc1ncc(NC(=O)c2cccc(C(F)(F)F)c2)cc1-c1cc(N2CCOCC2)nc(NC[C@H](C)O)n1` [Example 740, (S)—N-(5-(2-((2-hydroxypropyl)amino)-6-morpholinopyrimidin-4-yl)-6-methylpyridin-3-yl)-3-(trifluoromethyl)benzamide], 2.1 nM; with `COc1cncc(NC(=O)c2ccc(C)c(-c3cc(N4CCOCC4)c(=O)n(C)c3)c2)c1` [Example 442, N-(5-methoxypyridin-3-yl)-4-methyl-3-(1-methyl-5-morpholino-6-oxo-1,6-dihydropyridin-3-yl)benzamide], 68.7 nM. As for `Cc1ccc(NC(=O)c2ccnc(C(C)(C)O)c2)cc1-c1cc(N2CCOCC2)n2nccc2n1` [Example 794, 2-(2-hydroxypropan-2-yl)-N-(4-methyl-3-(7-morpholinopyrazolo[1,5-a]pyrimidin-5-yl)phenyl)isonicotinamide], the IC50 amounted to 2.6 nM. Still for that read-out and setting: the same measure for `Cc1ccc(C(=O)Nc2cccc(OC(F)(F)F)c2)cc1-c1cc(N2CCOCC2)c(=O)n(C)c1` [Example 441, 4-methyl-3-(1-methyl-5-morpholino-6-oxo-1,6-dihydropyridin-3-yl)-N-(3-(trifluoromethoxy)phenyl)benzamide]: 33.2 nM; for `CCOc1nnc(-c2cc(NC(=O)c3cccc(S(C)(=O)=O)c3)cnc2C)cc1N1CCOCC1` [Example 618, N-(5-(6-ethoxy-5-morpholinopyridazin-3-yl)-6-methylpyridin-3-yl)-3-(methylsulfonyl)benzamide]: 5 nM. As to `CCOc1nc(-c2cc(NC(=O)c3ccnc(C(C)(F)F)c3)ccc2C)cc(N2CCOCC2)n1` [Example 761, 2-(1,1-difluoroethyl)-N-(3-(2-ethoxy-6-morpholinopyrimidin-4-yl)-4-methylphenyl)isonicotinamide], the IC50 amounted to 0.9 nM.

`CCOc1nnc(-c2cc(NC(=O)c3cccc(C(F)(F)F)c3)cnc2C)cc1N1CCOCC1` [Example 609, N-(5-(6-ethoxy-5-morpholinopyridazin-3-yl)-6-methylpyridin-3-yl)-3-(trifluoromethyl)benzamide]: the IC50 was 0.9 nM. For `Cc1ncc(NC(=O)c2ccnc(C(C)(C)C#N)c2)cc1-c1cc(N2CCOCC2)nc(NC[C@@H](C)O)n1` [Example 742, (R)-2-(2-cyanopropan-2-yl)-N-(5-(2-((2-hydroxypropyl)amino)-6-morpholinopyrimidin-4-yl)-6-methylpyridin-3-yl)isonicotinamide], the IC50 is 38.6 nM.

For `Cc1ccc(NC(=O)c2ccnc(C(C)C)c2)cc1-c1cc(N2CCOCC2)c2nccn2n1` [Example 842, 2-isopropyl-N-(4-methyl-3-(8-morpholinoimidazo[1,2-b]pyridazin-6-yl)phenyl)isonicotinamide], the IC50 came to 1.3 nM. For the compound `Cc1ncc(NC(=O)c2ccnc(C(C)(F)F)c2)cc1-c1cc(N2CCOCC2)n2nccc2n1` [Example 799, 2-(1,1-difluoroethyl)-N-(6-methyl-5-(7-morpholinopyrazolo[1,5-a]pyrimidin-5-yl)pyridin-3-yl)isonicotinamide], the IC50 was 1.5 nM.

The same assay, now with this note: read-out: b-Raf IC-50; AlphaScreen, 60 min pre-incubation, reaction 3 hours at room temperature.
On to `Cc1ncc(NC(=O)c2cnnc(C(F)(F)F)c2)cc1-c1cc(NCCO)nc(N2CCOCC2)c1F` [Example 1004, N-(3′-fluoro-6′-((2-hydroxyethyl)amino)-2-methyl-2′-morpholino-[3,4′-bipyridin]-5-yl)-6-(trifluoromethyl)pyridazine-4-carboxamide], for which the IC50 turned out to be 83.6 nM. The same measure, in the same setting: with `Cc1ccc(NC(=O)c2ccnc(C(C)(F)F)c2)cc1-c1cnc(OC(C)C)c(N2CCOCC2)c1` [Example 945, 2-(1,1-difluoroethyl)-N-(3-(6-isopropoxy-5-morpholinopyridin-3-yl)-4-methylphenyl)isonicotinamide] the figure was 1.35 nM; with `Cc1ccc(NC(=O)c2cnnc(C3CC3)c2)cc1-c1cc(OCCO)nc(N2CCOCC2)c1` [Example 1162, 6-cyclopropyl-N-(3-(2-(2-hydroxyethoxy)-6-morpholinopyridin-4-yl)-4-methylphenyl)pyridazine-4-carboxamide], 0.38 nM. Turning to `Cc1ncc(NC(=O)c2cnnc(C(F)(F)F)c2)cc1-c1cc(N2CCOCC2)nc(N2CC(C)(O)C2)c1` [Example 1107, N-(2′-(3-hydroxy-3-methylazetidin-1-yl)-2-methyl-6′-morpholino-[3,4′-bipyridin]-5-yl)-6-(trifluoromethyl)pyridazine-4-carboxamide], the IC50 came to 13.4 nM. Regarding `Cc1ncc(NC(=O)c2ccnc(C(C)(C)O)c2)cc1-c1cnc(OC2CC3(COC3)C2)c(N2CCOCC2)c1` [Example 964, N-(6′-(2-oxaspiro[3.3]heptan-6-yloxy)-2-methyl-5′-morpholino-[3,3′-bipyridin]-5-yl)-2-(2-hydroxypropan-2-yl)isonicotinamide], the IC50 turned out to be 8.13 nM. Regarding `CCn1cc(C(=O)Nc2cnc(C)c(-c3cc(NCCO)nc(N4CCOCC4)c3)c2)cc(C(F)(F)F)c1=O` [Example 1044, 1-ethyl-N-(2′-((2-hydroxyethyl)amino)-2-methyl-6′-morpholino-[3,4′-bipyridin]-5-yl)-6-oxo-5-(trifluoromethyl)-1,6-dihydropyridine-3-carboxamide], the IC50 turned out to be 30.6 nM. On the same count and under the same terms, with `Cc1ccc(NC(=O)c2ccnc(C(C)(C)F)c2)cc1-c1cc(OCCO)nc(N2CCOCC2)c1` [Example 1158, 2-(2-fluoropropan-2-yl)-N-(3-(2-(2-hydroxyethoxy)-6-morpholinopyridin-4-yl)-4-methylphenyl)isonicotinamide] the figure was 1.63 nM; with `Cc1ncc(NC(=O)c2cccc(C(F)(F)F)c2)cc1-c1cnc(O[C@@H](C)CO)c(N2CCOCC2)c1` [Example 985, (S)—N-(6′-((1-hydroxypropan-2-yl)oxy)-2-methyl-5′-morpholino-[3,3′-bipyridin]-5-yl)-3-(trifluoromethyl)benzamide], 2.01 nM. On the same count and under the same terms, the same measure for `Cc1ncc(NC(=O)c2ccnc(C(C)(C)C#N)c2)cc1-c1cc(N2CCOCC2)c(S(C)(=O)=O)nn1` [Example 924, 2-(2-cyanopropan-2-yl)-N-(6-methyl-5-(6-(methylsulfonyl)-5-morpholinopyridazin-3-yl)pyridin-3-yl)isonicotinamide]: 57.7 nM; for `Cc1ncc(NC(=O)c2ccnc(C(C)(C)O)c2)cc1-c1cc(NCCO)nc(N2CCOCC2)c1` [Example 1046, N-(2′-((2-hydroxyethyl)amino)-2-methyl-6′-morpholino-[3,4′-bipyridin]-5-yl)-2-(2-hydroxypropan-2-yl)isonicotinamide]: 68.4 nM.

On to `COc1ncc(-c2cc(NC(=O)c3cccc(C(F)(F)F)c3)nnc2C)cc1N1CCOCC1` [Example 934, N-(5-(6-methoxy-5-morpholinopyridin-3-yl)-6-methylpyridazin-3-yl)-3-(trifluoromethyl)benzamide], for which the IC50 was 4.2 nM. The same measure, in the same setting: the same measure for `Cc1ncc(NC(=O)c2cc(C(C)(F)F)ccn2)cc1-c1cnc(OCCO)c(N2CCOCC2)c1` [Example 974, 4-(1,1-difluoroethyl)-N-(6′-(2-hydroxyethoxy)-2-methyl-5-morpholino-[3,3′-bipyridin]-5-yl)picolinamide]: 2.78 nM; for `Cc1ncc(NC(=O)c2ccnc(C(C)(F)F)c2)cc1-c1cnc(OC(F)F)c(N2CCOCC2)c1` [Example 980, 2-(1,1-difluoroethyl)-N-(6′-(difluoromethoxy)-2-methyl-5′-morpholino-[3,3′-bipyridin]-5-yl)isonicotinamide]: 1.99 nM.

The same assay, now with this note: read-out: b-Raf IC-50; Table 2; AlphaScreen, 3 hours reaction.
On to `CCOc1ncc(-c2cc(NC(=O)c3cccc(C(F)(F)F)c3)ccc2C)cc1N1CCOCC1` [Example 235], for which the IC50 came to 1 nM.

`Cc1ccc(NC(=O)c2ccnc(C(C)(C)C#N)c2)cc1-c1cc(N2CCOCC2)c(=O)n(C)n1` [Example 191, 2-(2-cyanopropan-2-yl)-N-(4-methyl-3-(1-methyl-5-morpholino-6-oxo-1,6-dihydropyridazin-3-yl)phenyl)isonicotinamide]: the IC50 is 5.4 nM. Turning to `Cc1ncc(NC(=O)c2cccc(C(F)(F)F)c2)cc1-c1cnc(C#N)c(N2CCOCC2)c1` [Example 222, N-(6′-cyano-2-methyl-5′-morpholino-[3,3′-bipyridin]-5-yl)-3-(trifluoromethyl)benzamide], the IC50 came to 3.8 nM. On the same count and under the same terms, the same measure for `Cc1ccc(NC(=O)c2ccnc(S(C)(=O)=O)c2)cc1-c1cc(N2CCOCC2)c(=O)n(C)c1` [Example 184, N-(4-methyl-3-(1-methyl-5-morpholino-6-oxo-1,6-dihydropyridin-3-yl)phenyl)-2-(methylsulfonyl)isonicotinamide]: 3.1 nM.

Regarding `Cc1ncc(NC(=O)c2ccnc(C(C)C)c2)cc1-c1cc(N2CCOCC2)c(=O)n(C)c1` [Example 400, N-(1′,2-dimethyl-5′-morpholino-6′-oxo-1′,6′-dihydro-[3,3′-bipyridin]-5-yl)-2-isopropylisonicotinamide], the IC50 worked out at 35.1 nM. The same measure, in the same setting: the same measure for `Cc1ncc(NC(=O)c2ccnc(C(C)(C)C#N)c2)cc1-c1cnc(OCCO)c(N2CCOCC2)c1` [Example 300, 2-(2-cyanopropan-2-yl)-N-(6′-(2-hydroxyethoxy)-2-methyl-5′-morpholino-[3,3′-bipyridin]-5-yl)isonicotinamide]: 14.6 nM; for `Cc1ccc(NC(=O)c2cccc(OC(F)(F)F)c2)cc1-c1cc(N2CCOCC2)nc(N2CCOCC2)n1` [Example 22, N-(3-(2,6-dimorpholinopyrimidin-4-yl)-4-methylphenyl)-3-(trifluoromethoxy)benzamide]: 0.7 nM.
